Measurements reported in patent publication US6632808B1 (priority 1998, dated 2003).

Test system: hamster 263K scrapie
Parameters: species or system transgenic mice over-expressing the hamster PrP-sen (Tg7)
Settings: in vivo

Phthalocyanine tetrasulfonate [PcTS]
animals surviving a minimum of 200 days: 60% | increase of survival times, late treatment: one week | survival longer than untreated controls: approximately 120 days | survivors at >170 Dpi: 80%
